Experimental findings from US11440923B2, “Substituted macrocyclic indole derivatives” (Bayer Aktiengesellschaft, priority 2017, dated 2022) are described below.

Usually IC50 stands for the point on the concentration scale where inhibition reaches its midpoint. In general, EC50 refers to the concentration giving half of the maximal effect.

The target of one data set is MCL-1 (Homo sapiens (Human), UniProt Q07820, K194A/K197A/R201A). Briefly: Protein-protein interaction assay MCL-1/Noxa BH3 peptide (MCL-1 assay, TR-FRET). The data set is classed as binding. The protocol: The dose-dependent inhibition by the compounds described in this invention of the interaction between MCL-1 and the BH3 domain of Noxa (both human) was determined using a steady state binding competition assay with time-resolved fluorescence energy transfer (TR-FRET) readout. For that purpose MCL-1 (amino acids 173-321, N-terminal fused to Maltose Binding Protein (MBP) SEQ ID 1)) and a synthetic Noxa BH3-derived peptide of sequence Biotin-PEG2-PEG2-PAELEVE-Nva-[…]-amide (SEQ ID 2) served as protein receptor and tracer ligand respectively. The MBP-MCL-1 was purchased from Beryllium (Bedford, Mass., USA). The expression and purification of this protein construct has been described elsewhere (DOI:10.1371/journal.pone.0125010). The Noxa BH3-derived peptide can be obtained from e.g. Biosyntan (Berlin, Germany).
For that, 100-fold concentrated DMSO solutions were prepared by serial dilutions (1:3.4) of a 2 mM stock solution in a clear, 384-well microtiter plate (Greiner Bio-One, Frickenhausen, Germany). From there, 50 nl were transferred in a dark test plate (Greiner Bio-One, Frickenhausen, Germany). The assay was initiated by addition of 2 μL of a 2,5-fold concentrated MBP-MCL-1 solution (usually for a 1 nM end concentration in 5 μL reaction volume) in aqueous assay buffer [50 mM Tris/HCl pH 7, 100 mM sodium chloride (NaCl), 50 mM potassium fluoride (KF), 0.005% Tween-20, 2 mM DTT, 0.1% bovine gamma globulin (BGG)] to the compounds in the assay plate. This was followed by a 10-minute incubation step at 22° C. for pre-equilibration of the putative complex between MBP-MCL-1 and the compounds.
The mixture was incubated in the dark for one hour at 22° C. and then overnight at 4° C. The formation of MCL-1/Noxa complexes was determined by measuring the resonance energy transfer of the anti-MBP-Eu-cryptate antibody to the streptavidin-XL665 present in the reaction.
For that purpose, the fluorescence emission at 620 nm and 665 nm after excitation at 330-350 nm was measured in a TR-FRET measuring instrument, for instance a Rubystar or a Pherastar (both from BMG Lab Technologies, Offenburg, Germany) or a Viewlux (Perkin-Elmer). The ratio of the emission at 665 nm and at 622 nm was used as indicator of the amount of MCL-1/NOXA complexes present.
The resulting data (ratio) were normalized, taking 0% inhibition as the mean value of control measurements (usually 32 data points) where all reagents were included. In this case 50 nl DMSO were used instead of compounds. […] IC50 values were determined by regression analysis based on a 4 parameter equation (minimum, maximum, IC50, Hill; Y=Max+(Min−Max)/(1+(X/IC50)^Hill) using the Screener Software (Genedata).
In general terms: In TR-FRET formats the signal depends on donor and acceptor labels being close together.

Data set [1] concerns SUDHL5 cells. The data set is described as follows: Induction of caspase-3/7 activity in SUDHL5 cells (Assay 4). The data set is classed as cell-based. To be noted: caspase-3/7 induction, 3 h, read-out: Caspase SUDHL5 EC50 (median). The essentials:
(§1)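 Read-out: Caspase-Glo 3/7 luminescence (1 h, 37 °C) after cells, plated overnight, were treated with compounds for 3 h at 37 °C. Signal corrected for cell-free medium background and expressed relative to DMSO control mean.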

Data set [2] deals with SUDHL5 cells. Briefly: Antiproliferation assay SUDHL5 (Assay 7). In kind it is cell-based. To be noted: 72 h, CellTiter-Glo, read-out: Antiproli SUDHL5 IC50 (median). The essentials:
(§2)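 IC50 values reflect growth relative to a day 0 baseline (CI) and DMSO vehicle (C0). Viable cells were quantified by CellTiter-Glo luminescence after 72 h treatment at 37 °C.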

The subject of data set [3] is SUDHL10 cells. The data set is described as follows: Induction of caspase-3/7 activity in SUDHL10 cells (Assay 4). As to conditions: caspase-3/7 induction, 3 h, read-out: Caspase SUDHL10 EC50 (median). In kind it is cell-based. The essentials:
as §1

The next data set has as its system HMC-1-8 cells. Briefly: Antiproliferation assay HMC-1-8 (Assay 7). The data set is classed as cell-based. In a few lines:
as §2

Another data set relates to AMO-1 cells. The data set is described as follows: Antiproliferation assay AMO-1 (Assay 7). The data set is classed as cell-based. To be noted: 72 h, CellTiter-Glo, read-out: Antiproli AMO-1 IC50 median. In a few lines:
as §2

Data set [4] deals with SUDHL10 cells. Briefly: Induction of cytotoxicity in SUDHL10 cells (Assay 6). The data set is classed as cell-based. In a few lines: (§3)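 SUDHL5 and SUDHL10 cells plated and held overnight at 37° C, then incubated 5 h at 37° C with compound. Viability measured by CellTiter-Glo luminescence after 15 min shaking at room temperature. Cell-free medium wells served as control.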
The subject of data set [5] is SUDHL5 cells. The data set is described as follows: Induction of cytotoxicity in SUDHL5 cells (Assay 6). In kind it is cell-based. In a few lines:
as §3

[6] abbreviates: 72 h, CellTiter-Glo, read-out: Antiproli HMC-1-8 IC50 median.
Where [7] appears, read: Homo sapiens, SU-DHL10, 5 h, 5 h, CellTiter-Glo, read-out: Cytotox SUDHL10 IC50 (median).
Setting [8] is: Homo sapiens, SU-DHL-5, 5 h, 5 h, CellTiter-Glo, read-out: Cytotox SUDHL5 IC50 (median).
Setting [9] is: 72 h, CellTiter-Glo; read-out: Antiproli HMC-1-8 IC50 median.
[10] abbreviates: 5 h, CellTiter-Glo, read-out: Cytotox SUDHL10 IC50 (median).
The mark [11] stands for this setting: 5 h, CellTiter-Glo, read-out: Cytotox SUDHL5 IC50 (median).
[12] abbreviates: read-out: MCL-1 Assay IC50 (median).

Each structure is given as a SMILES string. Where two headings read alike, the source gives them in different places. Some results are limits rather than exact numbers.

Chain of MCL-1 (Q07820 whole entry, looked up, stated change not applied, the tested form may be a part): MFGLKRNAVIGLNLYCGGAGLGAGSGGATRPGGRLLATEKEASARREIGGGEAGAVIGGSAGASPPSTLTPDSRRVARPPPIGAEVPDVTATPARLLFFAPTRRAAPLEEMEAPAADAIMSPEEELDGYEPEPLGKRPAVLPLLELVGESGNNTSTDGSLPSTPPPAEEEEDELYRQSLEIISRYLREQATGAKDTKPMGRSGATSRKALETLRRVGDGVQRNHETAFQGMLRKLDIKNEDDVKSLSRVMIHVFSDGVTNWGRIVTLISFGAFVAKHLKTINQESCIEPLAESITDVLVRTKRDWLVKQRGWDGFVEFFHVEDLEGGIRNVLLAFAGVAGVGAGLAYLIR

On to `CCc1c2c(nn1C)C(CCN(C)OC)OCCCCn1c(C(=O)O)c(CCCOc3cccc4cc(F)ccc34)c3ccc(Cl)c-2c31` (racemic) [Example 80, (rac)-4-chloro-3-ethyl-7-{3-[(6-fluoronaphthalen-1-yl)oxy]propyl}-(15-rac)-{2-[methoxy(methyl)amino]ethyl}-2-methyl-2,10,11,12,13,15-hexahydropyrazolo[4′,3′:9,10][1,6]oxazacycloundecino[8,7,6-hi]indole-8-carboxylic Acid], for which the IC50 against MCL-1 (MCL-1 Assay IC50 (median)) was 3.5 nM; in the data set with SUDHL5 cells [2] (Homo sapiens, SU-DHL-5, 72 h) it was 170 nM; in the data set on HMC-1-8 cells (setting [6]), 1590 nM; with AMO-1 cells (Homo sapiens, AMO1, 72 h) it was 47.4 nM; with SUDHL10 cells [4] (setting [7]) it was 250 nM; with SUDHL5 cells [5] (setting [8]), 150 nM. Besides, the EC50 in the data set on SUDHL5 cells [1] (Homo sapiens, SU-DHL-5, 3 h) stood at 140 nM; in the data set with SUDHL10 cells [3] (Homo sapiens, SU-DHL10, 3 h) it was 130 nM.

As to `CCc1c2c(nn1C)C1CCCN1CCCCn1c(C(=O)O)c(CCCOc3cccc4cc(F)ccc34)c3ccc(Cl)c-2c31` (racemic) [Example 104, (rac)-17-chloro-1-ethyl-14-{3-[(6-fluoronaphthalen-1-yl)oxy]propyl}-2-methyl-3b,4,5,6,8,9,10,11-octahydro-2H-pyrazolo[3′,4′:8,9]pyrrolo[1′,2′:6,7][1,6]diazacycloundecino[10,11,1-hi]indole-13-carboxylic Acid], the IC50 at MCL-1 (MCL-1 Assay IC50 (median)) was 0.88 nM; in the data set with SUDHL5 cells [2] (Homo sapiens, SU-DHL-5, 72 h), 550 nM; in the data set on HMC-1-8 cells (setting [9]), 2630 nM; in the data set on AMO-1 cells, 543 nM; with SUDHL10 cells [4] (setting [10]), 430 nM; with SUDHL5 cells [5] (setting [11]) it was 340 nM. Also, the EC50 in the data set on SUDHL5 cells [1] (Homo sapiens, SU-DHL-5, 3 h) was determined as 330 nM; with SUDHL10 cells [3], 360 nM.

On to `CCc1c2c(nn1C)C1CCCN1CCCCn1c(C(=O)O)c(CCCOc3cccc4cc(F)ccc34)c3ccc(Cl)c-2c31` (racemic) [Example 107, (rac)-17-chloro-1-ethyl-14-{3-[(6-fluoronaphthalen-1-yl)oxy]propyl}-2-methyl-3b,4,5,6,8,9,10,11-octahydro-2H-pyrazolo[3′,4′:8,9]pyrrolo[1′,2′:6,7][1,6]diazacycloundecino[10,11,1-hi]indole-13-carboxylic Acid], for which the concentration for half-maximal inhibition (IC50) at MCL-1 (MCL-1 Assay IC50 (median)) is 1.1 nM; in the data set on SUDHL5 cells [2] it was 1100 nM; in the data set with HMC-1-8 cells (setting [9]), 6640 nM; with AMO-1 cells, 1340 nM; with SUDHL10 cells [4] (setting [10]) it was 890 nM; with SUDHL5 cells [5] (setting [11]), 690 nM. Moreover, the results for the EC50 with SUDHL5 cells [1] and in the data set on SUDHL10 cells [3] were 540 nM and 1200 nM, respectively.

As for `CCc1c2c(nn1C)C(CCN1CC(F)C1)OCCCCn1c(C(=O)O)c(CCCOc3cccc4cc(F)ccc34)c3ccc(Cl)c-2c31` (racemic) [Example 108, (rac)-4-chloro-3-ethyl-15-[2-(rac)-(3-fluoroazetidin-1-yl)ethyl]-7-{3-[(6-fluoronaphthalen-1-yl)oxy]propyl}-2-methyl-2,10,11,12,13,15-hexahydropyrazolo[4′,3′:9,10][1,6]oxazacycloundecino[8,7,6-hi]indole-8-carboxylic Acid], the IC50 against MCL-1 (MCL-1 Assay IC50 (median)) amounted to 1.2 nM; with SUDHL5 cells [2] (Homo sapiens, SU-DHL-5, 72 h), 70 nM; in the data set on HMC-1-8 cells (setting [6]), 1870 nM; with AMO-1 cells (Homo sapiens, AMO1, 72 h) it was 51.8 nM; in the data set on SUDHL10 cells [4] (setting [7]), 130 nM; in the data set on SUDHL5 cells [5] (setting [8]), 84 nM. Moreover, the EC50 came out at 66 nM in the data set on SUDHL5 cells [1] (Homo sapiens, SU-DHL-5, 3 h) and 67 nM in the data set on SUDHL10 cells [3] (Homo sapiens, SU-DHL10, 3 h).

As to `CCc1c2c(nn1C)C1CCCN1CCCCn1c(C(=O)O)c(CCCOc3cccc4cc(F)ccc34)c3ccc(Cl)c-2c31` (single isomer, unassigned; (-)) [Example 106, (−)-17-chloro-1-ethyl-14-{3-[(6-fluoronaphthalen-1-yl)oxy]propyl}-2-methyl-3b,4,5,6,8,9,10,11-octahydro-2H-pyrazolo[3′,4′:8,9]pyrrolo[1′,2′:6,7][1,6]diazacycloundecino[10,11,1-hi]indole-13-carboxylic Acid], the IC50 on MCL-1 (setting [12]) was found to be 17 nM; with SUDHL5 cells [2] it was 2100 nM; with HMC-1-8 cells (setting [9]), 20600 nM; in the data set on AMO-1 cells it was 4450 nM; in the data set on SUDHL10 cells [4] (setting [10]) it was 5700 nM; with SUDHL5 cells [5] (setting [11]), 3700 nM. Also, the values for the EC50 with SUDHL5 cells [1] and in the data set on SUDHL10 cells [3] were 2700 nM and 4800 nM, respectively.

As for `CCc1c2c(nn1C)C(CCCN1CCOCC1)OCCCCn1c(C(=O)O)c(CCCOc3cccc4cc(F)ccc34)c3ccc(Cl)c-2c31` (single isomer, unassigned; enantiomer 2) [Example 67, (−)-4-chloro-3-ethyl-7-{3-[(6-fluoronaphthalen-1-yl)oxy]propyl}-2-methyl-15-[3-(morpholin-4-yl)propyl]-2,10,11,12,13,15-hexahydropyrazolo[4′,3′:9,10][1,6]oxazacycloundecino[8,7,6-hi]indole-8-carboxylic Acid (Enantiomer 2)], the IC50 against MCL-1 (MCL-1 Assay IC50 (median)) was 7.8 nM; in the data set on SUDHL5 cells [2], 2100 nM; with HMC-1-8 cells (setting [9]), more than 33000 nM; in the data set with AMO-1 cells it was 633 nM; in the data set with SUDHL10 cells [4] (setting [10]), 4900 nM; in the data set with SUDHL5 cells [5] (setting [11]) it was 2600 nM. Also, the EC50 stood at 1600 nM with SUDHL5 cells [1] and 4400 nM in the data set on SUDHL10 cells [3].

On to `CCc1c2c(nn1C)C(CCC1CCOCC1)N(C)CCCCn1c(C(=O)O)c(CCCOc3cccc4cc(F)ccc34)c3ccc(Cl)c-2c31` (centres unmarked) [Example 101, 4-chloro-3-ethyl-7-{3-[(6-fluoro-1-naphthyl)oxy]propyl}-2,14-dimethyl-15-[2-(tetrahydro-2H-pyran-4-yl)ethyl]-10,11,12,13,14,15-hexahydro-2H-pyrazolo[3′,4′:8,9][1,6]diazacycloundecino[10,11,1-hi]indole-8-carboxylic Acid], for which the IC50 on MCL-1 (setting [12]) stood at 1.8 nM; with SUDHL5 cells [2], 110 nM; in the data set on HMC-1-8 cells (setting [9]) it was 1490 nM; with AMO-1 cells, 95.8 nM; with SUDHL10 cells [4], 71 nM; with SUDHL5 cells [5], 140 nM. Moreover, the EC50 was 69 nM with SUDHL5 cells [1] and 51 nM in the data set on SUDHL10 cells [3].
